Reference: patent publication US20020132801A1, “Drospirenone for hormone replacement therapy” (Schering Aktiengesellschaft, priority 2001, published 2002)

Columns and labels:
Assay type in all cases: physicochemical
[1] = Solubility in water and aqueous buffers; conditions: water and aqueous buffers at various pH values
[2] = In vitro dissolution from tablet, USP XXIII Paddle Method; conditions: drospirenone in micronized form in a pharmaceutical composition; rapid dissolution defined as at least 70% over about 30 minutes from 3 mg tablet in 900 ml water at 37° C., 50 rpm
Procedure: A micronized substance is such that a test batch (ca. 200 mg) of the particles, herein drospirenone particles, has a surface area of more than 10,000 cm^2/g, and has the following particle size distribution for drospirenone as determined under the microscope: not more than 2 particles in a given batch (ca. 200 mg) with a diameter of more than 30 μm, and preferably ≦20 particles with a diameter of ≧10 μm and ≦30 μm.

[3] = Chemical stability under acid and alkaline conditions

Compound: C[C@]12CCC(=O)C=C1[C@@H]1C[C@@H]1[C@H]1[C@@H]3[C@@H]4C[C@@H]4[C@@]4(CCC(=O)O4)[C@@]3(C)CC[C@@H]12 [drospirenone, 6β,7β;15β;16β-dimethylene-3-oxo-17α-preg-4-ene-21,17-carbolactone]
- solubility [1]: sparingly soluble
- in vitro dissolution of active compound from composition [2]: rapid dissolution
- stability under acid conditions ([3]; acid conditions): rearranged to an inactive isomer
- stability under alkaline conditions ([3]; alkaline conditions): hydrolysed
